Assay [1] concerns Human islets. The assay can be described thus: gene expression in cytokine-stimulated human islets, Taqman real time PCR. Format: cell-based. The following applies: TNF-α. Here is the method: Human islets were incubated for 22 hours following stimulation with the inflammatory cytokines IFN-γ, TNF-α, and IL-1-β alone or in the presence of compound 1 or compound 9. Control islets were incubated for 22 hours in the absence of inflammatory cytokines or compounds. Following the incubation, gene expression for 12-LO, 15-LO, 5-LO, IL-12p40, and IFN-γ were determined using Taqman real time PCR.

The subject of assay [2] is human platelets. The assay can be described thus: platelet aggregation in response to agonists, light transmission aggregometry. Format: cell-based. The following applies: agonists thrombin, arachidonic acid, PAR1-AP, PAR4-AP, ADP, collagen; 10 min pretreatment; FIG. 2. How it is done: (§1) Human platelets were obtained from healthy volunteers from within the Thomas Jefferson University community and the Philadelphia area. These studies were approved by the Thomas Jefferson University Institutional Review Board. Informed consent was obtained from all donors before blood draw. Blood was centrifuged at 200 g for 15 min at room temperature. Platelet-rich plasma was transferred into a conical tube containing a 10% acid citrate dextrose solution (39 mM citric acid, 75 mM sodium citrate, and 135 mM glucose, pH 7.4) and centrifuged at 2000 g for 15 min at room temperature. Platelets were resuspended in Tyrode's buffer (12 mM NaHCO3, 127 mM NaCl, 5 mM KCl, 0.5 mM NaH2PO4, 1 mM MgCl2, 5 mM glucose, and 10 mM HEPES), and the final platelet concentration was adjusted as indicated after counting using a Coulter counter (Beckman Coulter, Fullerton, Calif.). Reported results are the data obtained using platelets from at least three different subjects.
Washed platelets were obtained as described in Example 10. […] Platelets were pretreated with compound 1 for 10 min and aggregation in response to stimulation by the agonists thrombin, PAR1-AP, PAR4-AP, ADP and collagen at various agonist concentrations was measured via the light transmission aggregometry method using a lumi-aggregometer model 700D (Chrono-log Corp., Havertown, Pa.) with stirring at 1100 rpm at 37° C. […]

Assay [3] has as its system integrin αIIbβ3 in human platelets. The assay can be described thus: activation of integrin αIIbβ3, PAC1 binding by flow cytometry. The following applies: vs agonists alone (thrombin, PAR1-AP, PAR4-AP, ADP); FIG. 5. The assay is classed as cell-based. Here is the method:
as §1
Washed platelets were obtained as described in Example 10. Flow cytometry was used to measure the activation of integrin αIIbβ3. Specifically, PAC1 (an antibody which only binds to αIIbβ3 when the protein is in its active conformation) binding was used to selectively detect the conformational activation of αIIbβ3. […] The fluorescence intensity of 10,000 platelets was immediately measured using a C6 Accuri flow cytometer. […]
A general note: Flow cytometry measures light scatter and fluorescence of single cells or particles in a stream.

For assay [4], the target named is T1, human 12-lipoxygenase (Homo sapiens, UniProt P18054).
T1 sequence (P18054 1-663): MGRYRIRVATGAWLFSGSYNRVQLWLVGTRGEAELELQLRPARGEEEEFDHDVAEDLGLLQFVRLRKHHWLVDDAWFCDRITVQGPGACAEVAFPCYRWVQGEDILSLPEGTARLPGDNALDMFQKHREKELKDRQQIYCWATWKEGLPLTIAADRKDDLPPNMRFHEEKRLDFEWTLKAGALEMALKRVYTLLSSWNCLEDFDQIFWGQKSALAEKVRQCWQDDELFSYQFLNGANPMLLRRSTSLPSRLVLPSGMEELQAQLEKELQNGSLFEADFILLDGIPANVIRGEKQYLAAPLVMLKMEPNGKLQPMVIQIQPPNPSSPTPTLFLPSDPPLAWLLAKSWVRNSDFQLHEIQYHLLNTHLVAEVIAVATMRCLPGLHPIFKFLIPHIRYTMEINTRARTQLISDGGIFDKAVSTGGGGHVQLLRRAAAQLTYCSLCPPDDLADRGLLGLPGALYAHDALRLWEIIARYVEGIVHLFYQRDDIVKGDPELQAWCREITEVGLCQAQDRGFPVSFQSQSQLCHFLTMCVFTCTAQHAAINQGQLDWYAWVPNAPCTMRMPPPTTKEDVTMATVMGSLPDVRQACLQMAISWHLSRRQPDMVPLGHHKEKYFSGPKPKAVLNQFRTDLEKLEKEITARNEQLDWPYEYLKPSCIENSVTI
The assay can be described thus: human 12-lipoxygenase inhibition (12hLO) assay, absorbance at 234 nm. Format: biochemical.

Assay [5] relates to P-selectin on the surface of human platelets. The assay can be described thus: α-granule secretion, P-selectin expression by flow cytometry. Format: cell-based. The following applies: vs agonists alone (thrombin, PAR1-AP, PAR4-AP, ADP); FIG. 4. How it is done:
as §1
Washed platelets were obtained as described in Example 10. Flow cytometry was used to measure the secretion of α-granules. Specifically, P-selectin expression was used to detect α-granule secretion. […] The fluorescence intensity of 10,000 platelets was immediately measured using a C6 Accuri flow cytometer. […]

Setting [6] is: relative to control islets, IFN-γ, IL-1-β stimulation, 22 hours.

The values that follow come from patent publication US20130096159A1, “INHIBITORS OF HUMAN 12-LIPOXYGENASE” (The United States of America, as represented the Secretary …, priority 2010, published 2013).

Usually IC50 stands for the point on the concentration scale where inhibition reaches its midpoint. As for `CCC(=O)NC(c1cccs1)c1cc([N+](=O)[O-])c2cccnc2c1O` (stereo not drawn) [Compound 1, N-((8-hydroxy-5-nitroquinolin-7-yl)(thiophen-2-yl)methyl)propionamide], in assay [1] (induced by IFN-γ, IL-1-β), the “reduction in IFN-γ expression” value was 4 fold and the “reduction in IL-12p40 mRNA expression” value was 40 fold. Also, in assay [1] (setting [6]), the “Change in Gene Expression 5-LO” value is 1, the “Change in Gene Expression 12-LO” value is recorded as 13, the “Change in Gene Expression 15-LO” value turned out to be 1 and the “Change in Gene Expression IFN-γ” value amounted to 25. Besides, the “Change in Gene Expression IL-12p40” value in assay [1] (setting [6]) is on record as 3. In addition, in assay [2], the “dose response curves for platelet aggregation” value was “substantially unaffected”. The “binding of PAC1 on the surface of the platelets” value in assay [3] is given as “decreased binding of PAC1”. Besides, the “selectivity for inhibition of human 12-lipoxygenase as compared with human 5-lipoxygenase, 15-lipoxygenase-1 and 15-lipoxygenase-2” value in assay [4] is reported as “exhibited selectivity”. In assay [4] (12hLO Inhibition, Table 1, read-out: IC50 (μM) [± SD μM]), the IC50 is 0.8 µM. The “expression of P-selectin on the surface of the platelets” value in assay [5] is “decreased expression of P-selectin”.
